The record followed here is PubChem BioAssay (NCI).

By GI50 is commonly meant the concentration that inhibits growth by half. Broadly, the TGI is the concentration at which net growth stops. Read a high TGI as lower sensitivity of the cells.

Some test systems named below: K-562 leukemia; MOLT-4 leukemia; OVCAR-5 ovarian; OVCAR-8 ovarian; SF-268 CNS; SF-539 CNS; SW-620 colon; TK-10 renal; HT29 colon; IGROV1 ovarian.
Holding throughout (assay): DTP human tumour cell line panel, 48 h

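Step 1: Grow cells in 96-well plates. Step 2: Expose to compound for 48 hours at 5 concentrations. Step 3: Interpolate endpoints linearly; if unreached, use highest concentration. GI50 is the concentration that inhibits growth by half. The concentration for full growth arrest is given as TGI.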

As to `CCSc1sc(-c2ccc(C)cc2)nc1[P+](c1ccccc1)(c1ccccc1)c1ccccc1`, the GI50 in the assay on K-562 leukemia is 0.195 µM; in the assay on MOLT-4 leukemia, 0.391 µM; in the assay on OVCAR-5 ovarian, 0.376 µM; in the assay on OVCAR-8 ovarian, 0.313 µM; in the assay with SF-268 CNS, 0.328 µM; with SF-539 CNS, 0.394 µM. The GI50 is 0.332 µM in the assay on SW-620 colon and 0.271 µM in the assay with TK-10 renal. Moreover, the total growth inhibition concentration (TGI) with K-562 leukemia was determined as 1.44 µM; with MOLT-4 leukemia, 1.87 µM; in the assay with OVCAR-5 ovarian it was 1.56 µM; with OVCAR-8 ovarian it was 1.89 µM; in the assay on SF-268 CNS, 1.43 µM; in the assay with SF-539 CNS it was 1.53 µM. For the same compound, the TGI came to 1.34 µM in the assay on SW-620 colon and 1.48 µM in the assay on TK-10 renal.
For `COC(=O)C1=C(O)C(C(=O)OC)[C@@]2(O)[C@@H](C(=O)OC)C(c3ccccc3C(F)(F)F)C[C@@H]1[C@@H]2C(=O)OC` (some centres undefined), the GI50 with HT29 colon was 0.228 µM; with K-562 leukemia, 2.15 µM; in the assay with MOLT-4 leukemia, 1.88 µM; with OVCAR-5 ovarian it was 17.4 µM; with OVCAR-8 ovarian it was 10.1 µM; in the assay with SF-268 CNS, 12.2 µM. Also, the GI50 with SF-539 CNS is 2.14 µM; in the assay on SW-620 colon it was 4.02 µM; with TK-10 renal, 12.1 µM. The total growth inhibition concentration (TGI) was found to be 5.3 µM in the assay on HT29 colon; 9.52 µM with K-562 leukemia; 6.97 µM in the assay with MOLT-4 leukemia; 33.3 µM in the assay with OVCAR-5 ovarian; 24.5 µM in the assay on OVCAR-8 ovarian; 30.3 µM in the assay on SF-268 CNS. Further, the values for the TGI in the assay with SF-539 CNS, in the assay with SW-620 colon and in the assay on TK-10 renal were 5.71 µM, 20.1 µM and 25.5 µM, respectively.
In the case of `COc1ccc(OC)c(-c2cc(-c3ccc(Cl)cc3)nn2-c2ccc(S(N)(=O)=O)cc2)c1`, the GI50 in the assay on IGROV1 ovarian was 21.6 µM; with K-562 leukemia, 2.07 µM; with MOLT-4 leukemia it was 3.52 µM; in the assay on OVCAR-5 ovarian it was 12.8 µM; with OVCAR-8 ovarian, 11.3 µM; in the assay with SF-268 CNS, 13.9 µM. Besides, the values for the GI50 in the assay on SF-539 CNS, in the assay with SW-620 colon and in the assay with TK-10 renal were 17.6 µM, 4.29 µM and 6.56 µM, respectively. Further, the TGI in the assay on IGROV1 ovarian was greater than 100 µM; with K-562 leukemia it was 4.87 µM; with MOLT-4 leukemia, greater than 100 µM; in the assay with OVCAR-5 ovarian, 28.7 µM; with OVCAR-8 ovarian, 34.6 µM; in the assay on SF-268 CNS it was 32.9 µM. The TGI in the assay with SF-539 CNS was 34.3 µM; with SW-620 colon it was greater than 100 µM; in the assay with TK-10 renal, 22.7 µM.
On to `O=C1/C=C(/c2ccc(O)cc2)[C@H](O)Cc2ccc(OC3OC(CO)C(O)C(O)C3O)cc2O1` (some centres undefined) (tested in a mixture with another compound), for which the TGI with HT29 colon, with IGROV1 ovarian, in the assay with OVCAR-5 ovarian, with OVCAR-8 ovarian, in the assay with SF-268 CNS and in the assay on SF-539 CNS was greater than 100 µM throughout. For the same compound, the total growth inhibition concentration (TGI) in the assay with SW-620 colon and in the assay on TK-10 renal was greater than 100 µM in each case.
As to `NC(=O)c1ncn(C2CCC(CP(=O)(O)O)C2)c1N` (centres undefined), the concentration for total growth inhibition (TGI) in the assay with HT29 colon, with IGROV1 ovarian, with MOLT-4 leukemia, with OVCAR-5 ovarian, in the assay on OVCAR-8 ovarian and in the assay on SF-268 CNS was greater than 100 µM in each case. Further, the TGI in the assay on SF-539 CNS, in the assay on SW-620 colon and in the assay on TK-10 renal was greater than 100 µM in each case.
In the case of `Cc1c(Br)cccc1NC(=O)c1sc2nc3c(cc2c1N)CN(Cc1ccccc1)CC3`, the GI50 in the assay with HT29 colon is 0.179 µM; in the assay with IGROV1 ovarian, 0.47 µM; with MOLT-4 leukemia, 0.409 µM; in the assay with OVCAR-5 ovarian it was 0.289 µM; with OVCAR-8 ovarian, 0.298 µM; in the assay on SF-268 CNS it was 0.525 µM. In addition, the figures for the GI50 in the assay with SF-539 CNS, in the assay on SW-620 colon and with TK-10 renal were 0.158 µM, 0.164 µM and 1.19 µM, respectively. The TGI with HT29 colon was 5.25 µM; with IGROV1 ovarian, greater than 50 µM; with MOLT-4 leukemia, greater than 50 µM; in the assay on OVCAR-5 ovarian, greater than 50 µM; with OVCAR-8 ovarian, greater than 50 µM; in the assay with SF-268 CNS, 27.2 µM. Also, the TGI in the assay on SF-539 CNS came out at 0.858 µM; in the assay on SW-620 colon it was 7.15 µM; in the assay with TK-10 renal, 16.1 µM.
Consider `O=C(N/C(=C\c1cc(Cl)ccc1Cl)c1nc2ccccc2[nH]1)c1ccccc1`, for which the TGI was 29.8 µM with HT29 colon; 76.6 µM in the assay with K-562 leukemia; 63.8 µM in the assay with MOLT-4 leukemia; greater than 100 µM with OVCAR-5 ovarian; 46.9 µM in the assay with OVCAR-8 ovarian; greater than 100 µM with SF-268 CNS. Further, the TGI in the assay with SF-539 CNS is greater than 100 µM; with SW-620 colon, 52.8 µM; in the assay on TK-10 renal, greater than 100 µM.
With `CC(C)(C)NC(=O)C12C3C4C1C1C2C3C41I` (centres undefined), the TGI in the assay with HT29 colon, in the assay with K-562 leukemia, in the assay on MOLT-4 leukemia, in the assay with OVCAR-5 ovarian, with OVCAR-8 ovarian and in the assay on SF-539 CNS was greater than 100 µM in each case. The TGI in the assay on SW-620 colon and in the assay with TK-10 renal was greater than 100 µM in each case.
For the compound `COc1cc(C=C2C(=O)OC(C)(C)OC2=O)cc(OC)c1OC`, the TGI in the assay with HT29 colon, with K-562 leukemia, in the assay with MOLT-4 leukemia, in the assay with OVCAR-5 ovarian, with OVCAR-8 ovarian and in the assay with SF-268 CNS was greater than 100 µM each time. The TGI in the assay on SF-539 CNS, with SW-620 colon and in the assay on TK-10 renal was greater than 100 µM in each case.
As for `N#CC1=C(N)NC(=S)NC1c1ccc(-c2ccc(-c3nc4ccccc4s3)cc2)o1` (centres undefined), the GI50 in the assay with IGROV1 ovarian is 32.1 µM; in the assay with K-562 leukemia it was 9.98 µM; with OVCAR-5 ovarian it was greater than 50 µM; in the assay on OVCAR-8 ovarian it was 35.1 µM; in the assay on SF-268 CNS it was 28.9 µM; in the assay on SF-539 CNS, 15.2 µM. The GI50 is 37.5 µM in the assay with SW-620 colon and 37.9 µM in the assay with TK-10 renal. Besides, the TGI was greater than 50 µM with IGROV1 ovarian; 22 µM with K-562 leukemia; greater than 50 µM in the assay on OVCAR-5 ovarian; greater than 50 µM in the assay on OVCAR-8 ovarian; greater than 50 µM in the assay with SF-268 CNS; 31.7 µM with SF-539 CNS. In addition, the TGI in the assay on SW-620 colon and in the assay with TK-10 renal was greater than 50 µM in each case.
